The NIST ThermoML archive (doi:10.1016/j.jct.2016.07.008)

Conditions: Liquid

CCCCO [butan-1-ol]
viscosity [mPa·s]
Conditions | 293.15 K | 298.15 K | 313.15 K | 323.15 K | 333.15 K | 348.15 K | 353.15 K
100 kPa, Concentric cylinders viscometry | 2.959 | – | 1.794 | – | 1.154 | – | 0.7837
100 kPa, Vibrating wire viscometry | 2.969 | 2.601 | 1.797 | 1.429 | 1.156 | 0.8579 | 0.7903
1000 kPa, Vibrating wire viscometry | 3.001 | 2.622 | 1.813 | 1.44 | 1.172 | 0.8647 | 0.7943
5000 kPa, Vibrating wire viscometry | 3.108 | 2.715 | 1.89 | 1.491 | 1.227 | 0.8956 | 0.8284
10000 kPa, Vibrating wire viscometry | 3.244 | 2.834 | 1.967 | 1.556 | 1.29 | 0.9349 | 0.8637
20000 kPa, Vibrating wire viscometry | 3.479 | 3.079 | 2.14 | 1.69 | 1.389 | 1.016 | 0.9473
30000 kPa, Vibrating wire viscometry | 3.788 | 3.333 | 2.319 | 1.829 | 1.504 | 1.101 | 1.04
40000 kPa, Vibrating wire viscometry | 4.078 | 3.599 | 2.48 | 1.975 | 1.624 | 1.189 | 1.102
50000 kPa, Vibrating wire viscometry | 4.401 | 3.874 | 2.629 | 2.125 | 1.741 | 1.28 | 1.21
60000 kPa, Vibrating wire viscometry | 4.74 | 4.16 | 2.852 | 2.281 | 1.867 | 1.375 | 1.295
70000 kPa, Vibrating wire viscometry | 5.076 | 4.455 | 3.089 | 2.443 | 2.014 | 1.473 | 1.384
80000 kPa, Vibrating wire viscometry | 5.438 | 4.761 | 3.247 | 2.61 | 2.137 | 1.575 | 1.473
100000 kPa, Vibrating wire viscometry | 6.164 | 5.404 | 3.686 | 2.962 | 2.384 | 1.788 | 1.676
120000 kPa, Vibrating wire viscometry | 6.979 | 6.087 | 4.192 | 3.335 | 2.633 | 2.015 | 1.857
140000 kPa, Vibrating wire viscometry | 7.843 | 6.811 | 4.638 | 3.682 | 2.883 | 2.255 | 2.037
